Consider 13 compounds from ChEMBL document CHEMBL1201862, “PubChem BioAssay data set” (2004).

Test in all cases: NCI tumour cell line growth inhibition, 48 h
Assay [1] relates to ACHN.
Assay [2] concerns CAKI-1.
In assay [3] the test system is CCRF-CEM.
In assay [4] the test system is DLD-1.
Assay [5] relates to M14.
Assay [6] deals with Malme-3M.
Assay [7] relates to OVCAR-8.
Assay [8] relates to RPMI-8226.
Assay [9] relates to RXF 393.
The test system of assay [10] is SF-268.
Assay [11] has as its system SK-MEL-5.
Assay [12] concerns SK-OV-3.
The test system of assay [13] is SN12C.
Assay [14] relates to SNB-75.
For assay [15], the system named is UACC-257.
Assay [16] concerns Hs-578T.
The subject of assay [17] is MCF7.
The subject of assay [18] is MDA-MB-231.
Assay [19] deals with SR.
Assay [20] relates to T47D.

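Method: 48-hour compound exposure of cells in 96-well plates, five concentrations, linear interpolation of endpoints. At the GI50, growth is halved.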 Active and inactive are the calls of the source. Cut-off read from the data, not from the text of the source: active = GI50 up to about 1.1 µM and inactive = higher.

On to `CCCCCCCCCC1CC(=O)OC23CCCC(=O)C12O3` (stereo unspecified), for which the GI50 in assay [1] is > 100 µM (inactive); in assay [2] it was > 100 µM (inactive); in assay [3], > 100 µM (inactive); in assay [4], 98.6 µM (inactive); in [5], > 100 µM (inactive); in assay [6], > 100 µM (inactive). In addition, the GI50 is 52.1 µM (inactive) in [7]; > 100 µM (inactive) in [8]; > 100 µM (inactive) in assay [9]; > 100 µM (inactive) in [10]; 74.5 µM (inactive) in [11]; > 100 µM (inactive) in assay [12]. Further, the GI50 in assay [13], in assay [14] and in [15] was > 100 µM (inactive) in each case.
With `N#CC(C#N)=C1c2ccccc2C(=NN)c2ccccc21`, the GI50 in assay [1] was 12.3 µM (inactive); in [2] it was > 25.7 µM (inactive); in [3], > 100 µM (inactive); in [16], 9.57 µM (inactive); in assay [5], 88.1 µM (inactive); in assay [17], > 100 µM (inactive). For the same compound, the GI50 in assay [18] was > 79.8 µM (inactive); in assay [6], 92.9 µM (inactive); in assay [7] it was > 100 µM (inactive); in assay [8] it was > 100 µM (inactive); in assay [9], 27.5 µM (inactive); in assay [10] it was > 61.4 µM (inactive). Besides, the GI50 is 14.8 µM (inactive) in [11]; > 100 µM (inactive) in [12]; > 100 µM (inactive) in assay [13]; > 43.9 µM (inactive) in assay [14]; > 100 µM (inactive) in assay [19]; 0.508 µM (active) in [20]. The GI50 in [15] is > 100 µM (inactive).
Take `COc1ccc2c(c1)C1C(CO2)C(c2ccccc2)=NN1c1ccccc1` (stereo unspecified): the GI50 in assay [1] was > 100 µM (inactive); in [3], > 100 µM (inactive); in assay [4], > 100 µM (inactive); in [6], > 100 µM (inactive); in [7], > 100 µM (inactive); in [8], 48.1 µM (inactive). Moreover, the GI50 in assay [9] was 35.6 µM (inactive); in assay [10], 89.3 µM (inactive); in assay [11], > 100 µM (inactive); in [12], > 100 µM (inactive); in assay [14] it was 0.441 µM (active); in assay [15] it was > 100 µM (inactive).
As to `O=c1c2cccnc2[nH]c2ccc3[nH]ncc3c12`, the GI50 in assay [1] was 5.13 µM (inactive); in assay [2], 7.45 µM (inactive); in assay [3], > 10 µM (inactive); in assay [16], > 10 µM (inactive); in [5] it was > 10 µM (inactive); in assay [17], > 10 µM (inactive). Further, the GI50 in assay [18], in [6], in assay [7], in [8], in assay [9] and in [10] was > 10 µM (inactive) each time. In addition, the GI50 in assay [11], in [12], in assay [13], in assay [14], in assay [19] and in [20] was > 10 µM (inactive) in each case. Also, in assay [15], the GI50 is > 10 µM (inactive).
In the case of `N#CC(C(=O)/C(=N/NC(=O)c1ccccc1O)C(C#N)c1ccc(Cl)cc1)c1ccc(Cl)cc1` (stereo unspecified), the GI50 is 16 µM (inactive) in [1]; 4.26 µM (inactive) in assay [3]; 11.9 µM (inactive) in [4]; 19.2 µM (inactive) in assay [5]; 12.4 µM (inactive) in assay [6]; 13.4 µM (inactive) in assay [7]. Further, the GI50 in assay [8] was 15.8 µM (inactive); in assay [9] it was 4.05 µM (inactive); in assay [10], 16.6 µM (inactive); in assay [12], 30.8 µM (inactive); in assay [13] it was 13.2 µM (inactive); in assay [14], 3.56 µM (inactive). Further, the GI50 in assay [15] is 14.6 µM (inactive).
For the compound `COC(=O)C1CC/C(=N/C2c3ccccc3-c3ccccc32)N1` (stereo unspecified), the GI50 in assay [1] is > 100 µM (inactive); in assay [2], > 100 µM (inactive); in assay [3] it was 58.6 µM (inactive); in [4] it was > 100 µM (inactive); in [5], > 100 µM (inactive); in assay [6], > 100 µM (inactive). Moreover, the GI50 was > 100 µM (inactive) in [7]; 61.5 µM (inactive) in assay [8]; > 100 µM (inactive) in assay [10]; > 100 µM (inactive) in [12]; > 100 µM (inactive) in assay [13]; 58.6 µM (inactive) in assay [14]. For the same compound, in assay [15], the GI50 is > 100 µM (inactive).
With `Cc1[nH]c(=O)nc(N/N=C/c2ccc(O)cc2)c1C(=O)Nc1ccc(Cl)cc1`, the GI50 in [1] is > 100 µM (inactive); in [2] it was > 100 µM (inactive); in [3], > 100 µM (inactive); in assay [4], > 100 µM (inactive); in [5] it was 45.5 µM (inactive); in assay [6] it was > 100 µM (inactive). Moreover, the GI50 in [7] is > 100 µM (inactive); in assay [8], > 100 µM (inactive); in assay [10] it was > 100 µM (inactive); in assay [11], 88.1 µM (inactive); in assay [12], > 100 µM (inactive); in assay [13], > 100 µM (inactive). The GI50 in [14], in assay [19] and in [15] was > 100 µM (inactive) in each case.
As to `N#Cc1ccc2cc3c(cc2c1)OCO3`, the GI50 in assay [1] is 59.3 µM (inactive); in assay [3] it was > 100 µM (inactive); in assay [4], > 100 µM (inactive); in [5] it was > 100 µM (inactive); in assay [8] it was 54.5 µM (inactive); in assay [9], 61.5 µM (inactive). Besides, the GI50 in assay [10] is > 100 µM (inactive); in assay [12] it was > 100 µM (inactive); in assay [13] it was > 100 µM (inactive); in [14], 26 µM (inactive).
Take `CC(C)N(C(C)C)P(OCCC#N)OC1CC(n2cnc3c(=O)[nH]cnc32)OC1COC(=O)NCCCCCCNC(=O)OC(C)(C)c1ccc(-c2ccccc2)cc1` (stereo unspecified): the GI50 in [1] was 38.7 µM (inactive); in assay [2], 39.4 µM (inactive); in [3], 18.5 µM (inactive); in assay [4] it was 43.3 µM (inactive); in [5] it was 18.4 µM (inactive); in assay [6] it was 32.2 µM (inactive). The GI50 is 34.4 µM (inactive) in assay [7]; 25.7 µM (inactive) in assay [8]; 27.7 µM (inactive) in assay [9]; 29.6 µM (inactive) in assay [10]; 24.8 µM (inactive) in assay [11]; 39.4 µM (inactive) in [12]. Further, the GI50 is 23.7 µM (inactive) in assay [13], 24.3 µM (inactive) in [14] and 15.2 µM (inactive) in [15].
On to `COc1ccc2c(c1)CCC(OS(=O)(=O)CC13CCC(CC1=O)C3(C)C)C2=O` (stereo unspecified), for which the GI50 in [1] was 35.8 µM (inactive); in assay [2] it was 40.6 µM (inactive); in assay [3] it was 18.8 µM (inactive); in [4], 31.3 µM (inactive); in [5], 29.5 µM (inactive); in assay [6], 43 µM (inactive). Moreover, the GI50 is 18.7 µM (inactive) in [7]; 19.7 µM (inactive) in [8]; 22.1 µM (inactive) in assay [10]; 17.5 µM (inactive) in [11]; 19 µM (inactive) in assay [13]; 31.1 µM (inactive) in assay [14]. Besides, the GI50 is 24.9 µM (inactive) in [19] and 37.8 µM (inactive) in [15].
Turning to `C/C1=N\[N-]C(=O)c2ccccc2C(=O)N/N=C(\C)c2cccc1n2.O=[N+]([O-])[O-].[Zn+2]`, the GI50 in [1], in [2], in assay [3], in assay [4], in assay [5] and in assay [6] was > 100 µM (inactive) each time. Besides, the GI50 in [7], in assay [8], in assay [10], in assay [11], in [12] and in assay [13] was > 100 µM (inactive) in each case. Further, the values for the GI50 in [14] and in assay [15] were 19.5 µM (inactive) and > 100 µM (inactive), respectively.
For the compound `NC(=O)c1cccc([N+](=O)[O-])c1`, the GI50 in [2], in assay [3], in assay [4], in assay [5], in assay [6] and in [7] was > 100 µM (inactive) each time. The GI50 in assay [8], in [10], in assay [11], in assay [12], in [13] and in [14] was > 100 µM (inactive) each time. For the same compound, in assay [15], the GI50 was > 100 µM (inactive).
Regarding `CC(C)=CCC/C(C)=C/CC/C(C)=C/CC/C(C)=C/CC/C(C)=C/CC/C(C)=C/CC/C(C)=C/CC/C(C)=C/CC/C(C)=C/CO` [SOLANESOL], the GI50 is > 100 µM (inactive) in assay [1]; > 100 µM (inactive) in assay [2]; > 100 µM (inactive) in assay [3]; > 100 µM (inactive) in [16]; > 100 µM (inactive) in assay [5]; 87.7 µM (inactive) in assay [17]. Moreover, the GI50 in [18], in [6], in assay [7], in [8], in assay [9] and in assay [10] was > 100 µM (inactive) each time. Also, the GI50 in assay [11], in assay [12], in assay [13], in [14], in assay [19] and in [20] was > 100 µM (inactive) in each case. Besides, in [15], the GI50 is > 100 µM (inactive).
